According to USRE47689E1, “Compounds for treating spinal muscular atrophy” (PTC Therapeutics, Inc., priority 2011, dated 2019):
Like-named read-outs stand apart in the source and are kept apart here.

Experiments:
Smn protein = Smn protein assay in cultured cells (SMN HTRF); format: cell-based, human; settings: 48 hours; for maximum fold (Fold) increase of Smn protein: SMA patient fibroblast cells, 7-point concentration data, fold increase relative to vehicle control (SMN HTRF); for EC1.5x (concentration giving 1.5-fold Smn protein increase): SMA Type 1 patient fibroblast cells (GM03813), 7-point concentration curve, SMN HTRF, concentration producing 1.5 times Smn protein vs DMSO vehicle control, read-out: EC1.5x for Smn protein expression
Summary of the method: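 Lysates in RIPA with protease inhibitors are incubated overnight at room temperature with HTRF anti-SMN antibodies. EC1.5x is derived from fold increase in ΔF over vehicle.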

[1] = tested on: SMN2 minigene (full length SMN2 minigene mRNA containing SMN2 exon 7); experiment: SMN2 minigene mRNA splicing RT-qPCR assay in cultured cells; format: cell-based, human; settings: Homo sapiens, HEK293-H, read-out: EC1.5x for production of full length SMN2 mRNA
Summary of the method: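 Read-out: full-length (exon 7-included) SMN2 minigene mRNA by multiplex RT-qPCR with GAPDH, efficiency-corrected (1+E)^−Ct, GAPDH-normalized and divided by vehicle. Stably transfected HEK293H cells, 24 h compound exposure, duplicates per concentration. Value is EC1.5x, reported as star ranges.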

[2] = HEK293H cells stably transfected with SMN2-A minigene, 24 hours, 7-point concentration curve, 1.5-fold relative to vehicle-treated cells

melting point | Compound | maximum fold (Fold) increase of Smn protein (Smn protein) | EC (1.5-fold) [1, 2] [µM] | EC1.5x (concentration giving 1.5-fold Smn protein increase) (Smn protein) [nM] | EC (1.5-fold) ([1]; 24 h) [µM]
295 to 298 °C | C[C@@H]1CN(c2ccc3cc(-c4cn5cccc(C(F)(F)F)c5n4)c(=O)oc3c2)C[C@H](C)N1 [Compound 211, 7-[(3R,5S)-3,5-dimethylpiperazin-1-yl]-3-[8-(trifluoromethyl)imidazo[1,2-a]pyridin-2-yl]-2H-chromen-2-one] | * (maximum fold increase of ≤1.2) | 0.3 to 1 | – | –
175 to 177 °C | CCN(CC)CCOc1ccc2cc(-c3cn4cc(C)nc(C)c4n3)c(=O)oc2c1 [Compound 895, 7-[2-(diethylamino)ethoxy]-3-(6,8-dimethylimidazo[1,2-a]pyrazin-2-yl)-2H-chromen-2-one] | ***** (fold increase >1.65) | < 0.1 | < 300 | –
123 to 126 °C | COc1ccc(-c2cc3ccc(N4CCN[C@H](C)C4)cc3oc2=O)cc1 [Compound 448, 3-(4-methoxyphenyl)-7-[(3R)-3-methylpiperazin-1-yl]-2H-chromen-2-one] | * (maximum fold increase of ≤1.2) | 1 to 3 | – | –
228 to 231 °C | Cc1ccn2nc(-c3cc4ccc(N5CCNCC5)cc4oc3=O)cc2c1 [Compound 302, 3-(5-methylpyrazolo[1,5-a]pyridin-2-yl)-7-(piperazin-1-yl)-2H-chromen-2-one] | *** (fold increase between >1.35 and ≤1.5) | 0.1 to 0.3 | 300 to 1000 | –
245 to 250 °C | O=c1oc2cc(N3CCNCC3)cc(F)c2cc1-c1nc2ccccc2[nH]1 [Compound 375, 3-(1H-benzimidazol-2-yl)-5-fluoro-7-(piperazin-1-yl)-2H-chromen-2-one] | ** (fold increase between >1.2 and ≤1.35) | 0.3 to 1 | – | –
234 to 235 °C | Cc1cn2cc(-c3cc4ccc(N5CCCN(C)CC5)cc4oc3=O)nc2cn1 [Compound 493, 7-(4-methyl-1,4-diazepan-1-yl)-3-(6-methylimidazo[1,2-a]pyrazin-2-yl)-2H-chromen-2-one] | ***** (fold increase >1.65) | < 0.1 | < 300 | –
271 to 274 °C | Cc1cn2cc(-c3cc4ccc(N5C[C@@H]6[C@H](C5)[C@H]6N(C)C)cc4oc3=O)nc2c(C)n1 [Compound 761, 7-[(1R,5S,6s)-6-(dimethylamino)-3-azabicyclo[3.1.0]hex-3-yl]-3-(6,8-dimethylimidazo[1,2-a]pyrazin-2-yl)-2H-chromen-2-one] | **** (fold increase between >1.5 and ≤1.65) | < 0.1 | < 300 | –
155 to 159 °C | Cc1cn2cc(-c3cc4ccc(CCCNCc5ccncc5)cc4oc3=O)nc2c(C)n1 [Compound 936, 3-(6,8-dimethylimidazo[1,2-a]pyrazin-2-yl)-7-{3-[(pyridin-4-ylmethyl)amino]propyl}-2H-chromen-2-one] | ***** (fold increase >1.65) | < 0.1 | < 300 | –
205 to 209 °C | Cc1nn2cc(-c3cc4ccc(N5CCN[C@@H](C)C5)cc4oc3=O)nc2s1 [Compound 482, 3-(2-methylimidazo[2,1-b][1,3,4]thiadiazol-6-yl)-7-[(3S)-3-methylpiperazin-1-yl]-2H-chromen-2-one] | **** (fold increase between >1.5 and ≤1.65) | < 0.1 | < 300 | –
193 to 195 °C | CCN1CC[C@@H](Oc2ccc3cc(-c4cn5cc(C)nc(C)c5n4)c(=O)oc3c2)C1 [Compound 890, 3-(6,8-dimethylimidazo[1,2-a]pyrazin-2-yl)-7-{[(3R)-1-ethylpyrrolidin-3-yl]oxy}-2H-chromen-2-one] | ***** (fold increase >1.65) | < 0.1 | < 300 | –
270 to 277 °C | Cc1cc(F)c2nc(-c3cc4ccc(N5CCN(C)[C@@H](C)C5)cc4oc3=O)cn2c1 [Compound 471, 7-[(3S)-3,4-dimethylpiperazin-1-yl]-3-(8-fluoro-6-methylimidazo[1,2-a]pyridin-2-yl)-2H-chromen-2-one] | **** (fold increase between >1.5 and ≤1.65) | 0.1 to 0.3 | 300 to 1000 | –
125 to 128 °C | Cc1nccn2cc(-c3cc4ccc(N5CCCN(C)CC5)cc4oc3=O)cc12 [Compound 556, 7-(4-methyl-1,4-diazepan-1-yl)-3-(1-methylpyrrolo[1,2-a]pyrazin-7-yl)-2H-chromen-2-one] | *** (fold increase between >1.35 and ≤1.5) | 0.1 to 0.3 | 300 to 1000 | –
157 to 161 °C | CC(C)NCc1ccc2cc(-c3nc4c(Cl)cccc4s3)c(=O)oc2c1 [Compound 10, 3-(4-chloro-1,3-benzothiazol-2-yl)-7-[(propan-2-ylamino)methyl]-2H-chromen-2-one] | * (maximum fold increase of ≤1.2) | 0.3 to 1 | – | –
249 to 253 °C | O=c1oc2cc(N3CCNCC3)cc(F)c2cc1-c1nc2c(C(F)(F)F)cccc2o1 [Compound 254, 5-fluoro-7-(piperazin-1-yl)-3-[4-(trifluoromethyl)-1,3-benzoxazol-2-yl]-2H-chromen-2-one] | * (maximum fold increase of ≤1.2) | 0.3 to 1 | – | –
161 to 164 °C | CN1CCCN(c2cc(F)c3cc(-c4cc(F)cc(F)c4)c(=O)oc3c2)CC1 [Compound 365, 3-(3,5-difluorophenyl)-5-fluoro-7-(4-methyl-1,4-diazepan-1-yl)-2H-chromen-2-one] | * (maximum fold increase of ≤1.2) | 1 to 3 | – | –
260 °C (dec.) | Cc1ccc2nc(-c3cc4ccc(N5CCN(C(C)C)CC5)cc4oc3=O)cn2c1 [Compound 82, 3-(6-methylimidazo[1,2-a]pyridin-2-yl)-7-[4-(propan-2-yl)piperazin-1-yl]-2H-chromen-2-one] | ** (fold increase between >1.2 and ≤1.35) | 1 to 3 | – | –
192 to 202 °C | Cc1cn2cc(-c3cc4ccc(N(C)[C@@H]5CCNC5)cc4oc3=O)nc2c(C)n1 [Compound 700, 3-(6,8-dimethylimidazo[1,2-a]pyrazin-2-yl)-7-{methyl[(3R)-pyrrolidin-3-yl]amino}-2H-chromen-2-one] | ***** (fold increase >1.65) | 0.1 to 0.3 | < 300 | –

Compound | melting point | maximum fold (Fold) increase of Smn protein (Smn protein) | EC (1.5-fold) [1, 2] [µM] | EC1.5x (concentration giving 1.5-fold Smn protein increase) (Smn protein) [nM] | EC (1.5-fold) ([1]; 24 h) [µM]
Cc1ccc(-c2cc3ccc(N4CCNCC4)cc3oc2=O)cn1 [Compound 163, 3-(6-methylpyridin-3-yl)-7-(piperazin-1-yl)-2H-chromen-2-one] | 148 to 150 °C | * (maximum fold increase of ≤1.2) | – | – | 3 to 30
